Measured values published in US8946268B2, “Modulators of HEC1 activity and methods therefor” (Taivex Therapeutics, Inc., priority 2010, dated 2015).
pIC50: −log10 of the molar value.

Columns and labels:
Assay type in all cases: cell-based
[1] = system: Hela; assay: Antiproliferative activity (MTS assay), Hela; settings: Homo sapiens, HeLa, 96 h, Hela cells
Procedure: (§1) Antiproliferative effect is expressed as IC50 values in microMolar final concentration.
(§2) Cells were grown at 37° C. in a humidified atmosphere with 5% CO2 and 95% air. Cells were seeded in 96 well tissue culture plates.
(§3) Compound treatment started after overnight incubation of cells (TO). […] Compound was added to the plate in triplicate wells, and the plates were then incubated for 96 hours. DMSO (compounds diluents) was also included and added to the plate in control wells. Cell viability was then determined by MTS assay using CellTiter 96® AQueous non-radioactive cell proliferation assay system (Promega). A plate reader (Molecular Devices, Vmax) was used to read the optical densities, and the results were used to deduce concentration-response curves. […] The results were analyzed using linear regression software (GraphPad Prism 5; GraphPad Software Inc.).
(§4) The GI50 values (growth inhibitory activity) were determined to emphasize on the correction for the cell count at time zero; thus, the % inhibition of test drug were: [1−(T−T0)/(C−T0)]×100; and these value were used to plot the concentration-response curves, and then analyzed with linear regression software (GraphPad Prism 5).

[2] = system: MDA-MB-468; assay: Antiproliferative activity (MTS assay), MDA-MB-468; settings: Homo sapiens, MDA-MB-468, 96 h, MDA-MB-468 cells
Procedure: as §1, §2, §3, §4

[3] = system: MDA-MB-231; assay: Antiproliferative activity (MTS assay), MDA-MB-231; settings: Homo sapiens, MDA-MB-231, 96 h, MDA-MB-231 cells
Procedure: as §1, §2, §3, §4

[4] = system: K562; assay: Antiproliferative activity (MTS assay), K562; settings: Homo sapiens, K562, 96 h, K562 cells
Procedure: as §1, §2, §3, §4

Structure (SMILES) | pIC50 [1] | pIC50 [2] | pIC50 [3] | pIC50 [4]
COc1ccc(Oc2cc(C)c(-c3csc(NC(=O)c4cc[n+]([O-])cc4)n3)c(C)c2)cc1 [Compound 120] | 6.80 | 6.60 | 6.66 | 6.74
COc1ccc(Oc2cc(C)c(-c3csc(NC(=O)c4ccncc4C)n3)c(C)c2)cc1 [Compound 121] | 6.05 | 6.09 | 6.36 | 6.49
COc1ccc(Oc2cc(C)c(-c3csc(NC(=O)c4ccnc([N+](=O)[O-])c4)n3)c(C)c2)cc1 [Compound 124] | 6.48 | 6.28 | 6.66 | 6.92
COc1ccc(Sc2cc(C)c(-c3csc(NC(=O)c4ccnc(F)c4)n3)c(C)c2)cc1 [Compound 126] | 7.40 | 7.30 | 7.52 | 7.70
Cc1cc(S(C)(=O)=O)cc(C)c1-c1csc(NC(=O)c2ccncc2)n1 [Compound 127] | 6.08 | 6.34 | 6.35 | 6.28
COc1ccc(Oc2cc(C)c(-c3csc(NC(=O)c4ccnc(N)c4)n3)c(C)c2)cc1 [Compound 128] | 6.62 | 6.80 | 6.80 | 6.72
COc1ccc(S(=O)(=O)c2cc(C)c(-c3csc(NC(=O)c4ccncc4)n3)c(C)c2)cc1 [Compound 129] | 6.57 | 6.57 | 6.70 | 6.72
COc1ccc([S+]([O-])c2cc(C)c(-c3csc(NC(=O)c4ccncc4)n3)c(C)c2)cc1 (centres unmarked) [Compound 130] | 6.74 | 6.85 | 7.05 | 7.10
COc1ccc(Oc2cc(C)c(-c3csc(NC(=O)c4ccncc4)n3)c(Cl)c2)cc1 [Compound 131] | 7.22 | 7.30 | 7.40 | 7.40

Continued, values first:

pIC50 [1] | pIC50 [2] | pIC50 [3] | pIC50 [4] | Structure (SMILES)
6.48 | 6.48 | 6.60 | 6.74 | COc1ccccc1Oc1cc(C)c(-c2csc(NC(=O)c3ccncc3)n2)c(C)c1 [Compound 111]
6.40 | 6.26 | 6.52 | 6.64 | Cc1cc(I)cc(C)c1-c1csc(NC(=O)c2ccncc2)n1 [Compound 114]
6.64 | 6.66 | 6.77 | 6.85 | Cc1cc(Sc2ccccc2)cc(C)c1-c1csc(NC(=O)c2ccncc2)n1 [Compound 115]
6.82 | 6.89 | 6.92 | 6.96 | Cc1ccc(Sc2cc(C)c(-c3csc(NC(=O)c4ccncc4)n3)c(C)c2)cc1 [Compound 116]
6.57 | 6.66 | 6.62 | 6.82 | Cc1cc(Cc2ccccc2)cc(C)c1-c1csc(NC(=O)c2ccncc2)n1 [Compound 118]
5.67 | 5.91 | 6.14 | 6.44 | Cc1cc(Nc2ccc(Br)cc2)cc(C)c1-c1csc(NC(=O)c2ccncc2)n1 [Compound 122]
6.06 | 6.06 | 6.21 | 6.48 | Cc1cc(Nc2ccccc2)c(Br)c(C)c1-c1csc(NC(=O)c2ccncc2)n1 [Compound 123]
6.57 | 6.60 | 6.80 | 6.74 | CSc1cc(C)c(-c2csc(NC(=O)c3ccncc3)n2)c(C)c1 [Compound 125]
